What was measured:
[1] = Hydrophobic drug loading capacity of NPs (UV-vis/HPLC); format: physicochemical
Source text: In this drug loading strategy, DGKi or other hydrophobic drugs in organic solvent are mixed with an aqueous suspension of amph-NPs and dialyzed to remove the organic solvent, leading to partitioning of the drug into the hydrophobic pockets of the amph-NP ligand shell. This approach allowed one to load drugs that are nearly insoluble in aqueous solutions to high degrees of “solubility” via incorporation into MUS or MUSOT amph-NPs.
More detailed procedures to prepare small molecules-loaded NPs are as follows: Hydrophobic small molecules are dissolved in pure ethanol, and mixed with NPs in a dialysis tube against water. Dialysis tubes containing 100-500 Da molecular weight cut off allows ethanol to permeate while retains most small molecules. […] Loaded drugs were then quantified via absorbance using UV-vis spectrometer.
To test immunomodulatory drug loading capacity, small-molecule drug N-acetylcysteine (NAC) was loaded directly onto the gold core via sulfur-gold covalent bonding. […] The drug loading efficiency was determined by HPLC and UV-vis.
In this drug loading strategy, DGKi or other hydrophobic drugs in organic solvent are mixed with an aqueous suspension of amph-NPs and dialyzed to remove the organic solvent, leading to partitioning of the drug into the hydrophobic pockets of the amph-NP ligand shell. […] Loaded drugs were then quantified via absorbance using UV-vis spectrometer. […]

DCs, B and T cells = assay: Immune cell activation in lymph nodes after s.c. R848; format: in vivo, C57BL/6 mice; settings: doses above 5 μg, 24 h post injection
Experimental: From there they disperse into the body and drain into the lymph system where they encounter cells sensitive to their adjuvants. Serum inflammatory cytokines were tested one hour post injection given the short half-life of small molecules.
R848 (Resiquimod, a TLR7/8 agonist) was loaded into amph-NPs, and administered subcutaneously at the tail base. Serum was collected 1 hour post injection to evaluate systemic toxicity. Cells in LNs were isolated 24 h post injection to analyze immune cell activation.
Small molecules like R848 diffuse quickly into blood vessels, which may lead to severe systemic adverse effect. An experiment was designed to determine if by using lymph node targeted NPs, systemic adverse effects could be reduced while activation of local lymphocytes remains effective. Systemic toxicity was compared by measuring TNF, IL-6, IL-10, and MCP-1, and measuring activation of lymphatic cells.

Cytotoxic T cells = assay: T cell proliferation under PD-L1 induced suppression; format: cell-based; settings: αCD3/CD28 activated
Experimental: Cytotoxic T cells were incubated with αCD3/CD28 activating antibody and either control IgG, or with PD-L1 IgG (PD-1 agonist antibody) to induce T cell suppression, and further treated with vehicle, DGK inhibitor alone, DGK inhibitor loaded amph-NP, or amph-NP alone.

PD-1 = assay: cell-based or functional assay

CN[C@@H](C)C(=O)N[C@H](C(=O)N1CCC[C@H]1c1nc(C(=O)c2ccc(F)cc2)cs1)C1CCCCC1 [LCL161]
loading in amph-NPs [1]: loads well

CCOCc1nc2c(N)nc3ccccc3c2n1CC(C)(C)O [R848, Resiquimod]
activation of immune cells in LNs (DCs, B and T cells): activated DCs, B and T cells

Cc1nc2sccn2c(=O)c1CCN1CCC(=C(c2ccccc2)c2ccc(F)cc2)CC1 [diacyl kinase inhibitor]
% proliferating cells (Cytotoxic T cells; PD-L1 IgG (suppressed)): 2.71%
% proliferating cells (Cytotoxic T cells; control IgG): 89.9%

PD-L1 IgG (PD-1 agonist antibody)
% proliferating cells (cytotoxic T cells with anti-CD3/CD28, vehicle / no treatment; control IgG gave 71.3%) (PD-1): 0.98%
